The values that follow come from paper PMC12703741, “Light-Activated Metal-Dependent Protein Degradation: A Heterobifunctional Ruthenium(II) Photosensitizer Targeting New Delhi Metallo-β-lactamase 1” (Journal of the American Chemical Society, 2025).

Values joined by “and” are separate entries in the source; they are usually repeats but may differ in a detail not shown here. Equal values may be shown once. “Also recorded” adds a separate entry of the source. Read-outs that look alike come from different tables or passages of the source. A value given as a limit tells only on which side of the number the result lay.

For series [1], the target named is T1, NDM-1 (Klebsiella pneumoniae, UniProt C7C422). The conditions noted are these: read-out: Km(Nitrocefin); NDM-1 2 nM, 25 °C. The text has this: (4 pictures or pasted objects on this page, not shown here)
T1 sequence (C7C422 31-270 limits assumed): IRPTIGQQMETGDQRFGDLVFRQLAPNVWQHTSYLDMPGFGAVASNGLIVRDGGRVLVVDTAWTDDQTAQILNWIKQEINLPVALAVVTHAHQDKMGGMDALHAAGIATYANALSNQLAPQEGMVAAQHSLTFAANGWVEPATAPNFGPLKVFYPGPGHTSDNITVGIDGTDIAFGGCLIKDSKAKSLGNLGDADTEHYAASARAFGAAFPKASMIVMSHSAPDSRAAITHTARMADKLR
Series [2] concerns the target T1, NDM-1. Particulars: read-out: Km(Nitrocefin); previously reported; ref 5 (SI); cited from earlier work.
For series [3] the following is noted: archetypal comparison complex; cited from earlier work.
On the set-up of series [4]: method as in earlier work. Particulars: reference for 1O2 sensitization; ref 4 (SI), Tanielian et al., 1996; cited from earlier work.
Series [5] deals with E. coli NDM-1.
Protocol: based screening experiments were performed in biological triplicate, each replicate starting
from a new single colony inoculation. Statistical significance was determined using two-way
ANOVA followed by Sidak’s multiple comparison test, with a single pooled variance.
Concentration (MIC) assay
20% glycerol stocks of E. coli MG1655 pSU18 NDM-1 (E. coli NDM-1) and E. coli MG1655
pSU18 empty (E. coli empty) stored at -80 °C were used to streak nutrient agar plates. After
The MHBII culture growing both E. coli strains contained chloramphenicol
as an antibiotic resistance marker (2 µg/mL, equivalent to ¼ MICE. coli for chloramphenicol =
8 µg/mL). The resulting suspensions were each diluted 100 x (15 µL in 1.5 mL) in MHBII with
chloramphenicol (2 µg/mL), and the resultant suspensions were incubated to OD600 = 0.6-1.2
To generate the two-dimensional drug interaction matrix, four 96-well source plates were
prepared. In Source Plates A1-3, the three analytes were subjected to a two-fold serial dilution
across the rows (A to G), maintaining constant concentrations within each row and achieving
a vertical concentration gradient. In parallel, Source Plate B was prepared by diluting
meropenem in a two-fold series across the Columns (9 to 2), generating a horizontal
concentration gradient across the plate. Equal volumes (1 µL) from one of the source plates A
and source plate B were transferred into a 96-well assay plate to establish the checkerboard
layout with a 50X dilution into MHBII (50 μL total volume).
The prepared bacterial cells were diluted to OD600 = 0.01. Each prepared checkerboard plate
was then inoculated with 50 μL per well of bacterial culture in MHBII with ½ MIC of
chloramphenicol (100 μL total volume per well , final OD600 = 0.005). Control wells were
included to account for drug-free growth, sterility, and single-agent gradient exposures. Dark
For the light condition, the
OD600 was measured on a BMG Labtech CLARIOstar plate reader. The MIC is the first value
at which no growth is seen. All E. coli NDM-1 data were averaged from 3 biological replicates,
Series [6] addresses HDAC1 (Homo sapiens, UniProt Q13547). In words: HDAC1 deacetylation assay (H3K9Ac, mass spectrometry). Particulars: 100 µM compound, 3 hours, 37°C.
Protocol: 1.7.1 HDAC1 Assay conditions:
The results of the assay were analysed using HRMS.
HDAC1 was included (-HDAC1).
In series [7] the target is T1, NDM-1. The class given is biochemical. The conditions noted are these: mixture of NDM-1 and BSA, 0-1000 μM. The protocol:
1.8 Protein degradation via SDS-PAGE […]
were made at 10 mM in DMSO and then diluted to the appropriate concentration (1 mM – 10 µM) in 50 mM HEPES pH 7.5. The enzyme stocks (10 µM) were made up in 50 mM HEPES pH 7.5. The compound and enzyme stocks were mixed 1:1 and then pre -incubated for 10 min […]
‘light’ conditions the samples were transferred to a 96 well plate to provide irradiation. For a […]
(208 s, 96 mW cm-2). For a dose of 60 J cm-2 the plate was irradiated immediately (624 s, 96 […]
An aliquot of each sample was mixed with SDS-sample buffer (NuPAGE® LDS Sample buffer 4x) and heated to 95°C for 3 min. The samples were loaded on to the gel (NuPAGE® 4-12% Bis-tris gel) and run at 200V/125 mA for 30 min (1 gel per Gel box) or 60 min (2 gels per Gel box). SDS-PAGE gels were imaged using a Cytiva Amersham ImageQuant™ 800.
Densitometry of gel bands was measured and processed using Fiji (ImageJ).
1.8.3 BSA+NDM-1 selectivity experiment […]
nm, 20 J cm-2). Lane 1: Ladder; Lane 2: NDM-1 – no compound control (dark); Lane 3: BSA – no compound control (dark); Lane 4: NDM-1 + BSA - no compound control (dark); Lane 5: NDM-1 + BSA + 1 eq. compound (dark); Lane 6: NDM-1 + BSA + 10 eq. compound (dark); Lane 7: NDM-1 + BSA + 100 eq. compound (dark); Lane 8: NDM-1 + BSA - no compound control (light); Lane 9: NDM-1 + BSA + 1 eq. compound (light); Lane 10: NDM-1 + BSA + 10 eq. compound (light); Lane 11: NDM-1 + BSA + 100 eq. compound (light). […]
the dark (left) and under light irradiation (450 nm, 20 J cm-2).

In series [8] the test system is E. coli empty. Particulars: dark and light samples equivalent.
Series [9] addresses NDM-1 in E. coli NDM-1 (Klebsiella pneumoniae, UniProt C7C422). The conditions noted are these: E. coli NDM-1, 450 nm, 60 J cm^-2.
Protocol: shaking at 180 rpm for 18 hours. The overnight suspensions were subcultured (1:100) in fresh LB and incubated to yield an OD600 of 0.55-0.60. The were harvested and pelleted at 3500  g for 15 minutes at 4 °C. The pellets were washed with PBS and pelleted again under the same
conditions. The bacteria were then stored as pellets at 4 C until required for the assay and to
be used within 5 hours. To prepare the bacteria fo r the assay, a pellet was resuspended in an
adjusted volume of fresh PBS to achieve an OD600 ≈ 5.0 and then kept at 4 C for 1 hr before
being used. The bacteria were then diluted to OD600 ≈ 2.0 in fresh PBS and used immediately.
inhibitor control, and one row of Bacteria Buffer B (50 µL) which served as a no-bacteria
control (providing five rows in total). Bacteria stock (OD600 ≈ 2.0, 40 µL, final concentration
of bacteria in well = OD600 ≈ 0.8) was added to each well of the first four rows, the plate was
sealed, and the samples then pre-incubated for 60 min under either ‘dark’ or ‘light’ conditions
Under ‘dark’ conditions, the plate was left sealed in a
substrate in well = 100 µM) was conducted manually and then the plate immediately resealed
substrate had been completely consumed. Method conditions are as follows: cycle time = 100
Series [10] addresses T1, NDM-1. As to the method:
In addition, intact mass spectrometry was performed on the samples prepared for SDS-PAGE.

In series [11] the target is T1, NDM-1. This is another data set of the same source.
Protocol: 1.4.1 Differential Scanning Fluorimetry (DSF)
DSF was performed using the Applied Biosystems QuantStudio 5 thermal cycler (Thermo
Fisher Scientific). Results were analysed and Tm determined with the Applied Biosystems
Protein Thermal Shift Software v1.4 and Tm values determined by the software. DSF was
conducted in sealed MicroAmp Optical 384-Well Reaction Plates (Thermo Fisher Scientific).
at a temperature ramp rate of 0.03 °C/s. For compound-protein interaction studies, a final
containing 5X SYPRO Orange (Thermo Fisher Scientific), 50 mM HEPES and 5%(v/v)
DMSO-d6. The final reaction volume was 20 µL per well. All DMSO compound stocks used
for DSF experiments were freshly prepared from solid stocks. All DSF measurements were
carried out in triplicate and the Tm reported is the mean value and the error is the standard
deviation. For all compounds tested, a no protein control run was included to see potential
changes in fluorescence resulting from a compound-dye interaction.

HDAC1, sequence (Q13547 whole entry, species assumed): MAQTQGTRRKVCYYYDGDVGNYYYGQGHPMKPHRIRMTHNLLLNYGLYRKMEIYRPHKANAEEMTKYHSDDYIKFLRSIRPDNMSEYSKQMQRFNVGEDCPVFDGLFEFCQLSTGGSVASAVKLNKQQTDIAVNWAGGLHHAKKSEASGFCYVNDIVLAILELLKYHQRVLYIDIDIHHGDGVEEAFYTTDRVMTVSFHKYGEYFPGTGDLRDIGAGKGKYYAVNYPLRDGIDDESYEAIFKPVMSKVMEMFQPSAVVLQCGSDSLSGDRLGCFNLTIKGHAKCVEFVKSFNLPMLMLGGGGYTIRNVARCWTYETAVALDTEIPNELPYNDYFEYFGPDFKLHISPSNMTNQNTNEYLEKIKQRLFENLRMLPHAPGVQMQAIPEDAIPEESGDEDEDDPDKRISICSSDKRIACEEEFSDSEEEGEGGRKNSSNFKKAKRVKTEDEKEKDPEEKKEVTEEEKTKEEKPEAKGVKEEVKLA
NDM-1 in E. coli NDM-1, sequence (C7C422 29-270 limits assumed): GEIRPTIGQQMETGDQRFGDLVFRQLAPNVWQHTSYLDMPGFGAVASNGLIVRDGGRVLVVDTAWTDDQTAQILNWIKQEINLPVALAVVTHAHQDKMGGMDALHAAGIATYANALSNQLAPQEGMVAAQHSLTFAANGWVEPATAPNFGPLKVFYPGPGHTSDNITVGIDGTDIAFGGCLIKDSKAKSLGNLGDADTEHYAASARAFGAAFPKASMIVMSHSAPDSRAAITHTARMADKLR

Consider `O=C(Cc1cccs1)N[C@@H]1C(=O)N2C(C(=O)O)=C(/C=C/c3ccc([N+](=O)[O-])cc3[N+](=O)[O-])CS[C@H]12` [nitrocefin], for which the Km (as a rule, the substrate concentration at which the rate is half of its maximum) in series [1] is 3.1 ± 0.5 µM; in [2] it was 3.2 µM.
As for `[Cl][Ru][Cl].c1ccc(-c2ccccn2)nc1.c1ccc(-c2ccccn2)nc1.c1ccc(-c2ccccn2)nc1` [[Ru(bpy)3]Cl2, tris(2,2’-bipyridyl)ruthenium(II) dichloride], in series [3], the “Luminescence lifetime of excited state” value is given as 510 ns. Further, the “1O2 quantum yield (ΦΔ)” value in [4] is 0.87.
Regarding “[Ru(2,2'-bipyridine)2(1-(4-(3-aminophenyl)pyridine-2,6-dicarboxylic acid)-imidazo[4,5,f][1,10]phenanthroline)](PF6)2 [Ru1]”, the MIC (in general, the lowest concentration found to suppress growth) in series [5] (E. coli NDM-1, dark and light samples equivalent) is >160 µM; in series [8] it was >160 µM. In addition, the “Fold change in Meropenem MIC” value in series [5] (compound 5 μM, dark) turned out to be 0 fold; in series [5] (compound 5 μM, light 450 nm, 60 J cm^-2), 0.66 fold; in series [5] (compound 10 μM, dark), 0 fold; in series [5] (compound 10 μM, light 450 nm, 60 J cm^-2), 0.66 fold; in series [5] (compound 20 μM, dark), 0.66 fold; in series [5] (compound 20 μM, light 450 nm, 60 J cm^-2), 2.0 fold. The “Fold change in Meropenem MIC” value was 0.66 fold in [5] (compound 40 μM, dark); 5.3 fold in [5] (compound 40 μM, light 450 nm, 60 J cm^-2); 2.6 fold in series [5] (compound 80 μM, dark); 19 fold in series [5] (compound 80 μM, light 450 nm, 60 J cm^-2); 9 fold and 9.3 fold in [5] (compound 160 μM, dark); 53 fold in series [5] (compound 160 μM, light 450 nm, 60 J cm^-2). Also, the “Inhibition of HDAC1” value in [6] is given as “do not inhibit; also recorded: no off-target inhibition”. In addition, the “Degradation of NDM-1 vs BSA (band intensity)” value is “Both proteins were unaffected” in series [7] (dark); “only NDM-1 was selectively modified and degraded; also recorded: Selective degradation of NDM-1 over BSA” in series [7] (light 450 nm, 20 J cm^-2). In addition, the “Fold improvement in potency, light vs dark” value in series [9] is given as 30 fold. Besides, the “Modification of NDM-1 (intact mass)” value in [10] (100 equiv, without irradiation) is given as “no change”; in series [10] (one equivalent, light 450 nm, 20 J cm^-2), “considerable modification to the protein”. Besides, the “K d,app from DSF (ΔT vs concentration)” value in [11] (apparent Kd) turned out to be 7.4 µM. Further, the “Change in melting temperature (ΔT) of NDM-1” value in series [11] (compound 4 μM) is “–3.9 °C”; in series [11] (compound 16 μM), “–6.8 °C”; in [11] (compound 63 μM), “–13 °C”. Moreover, the “Effect on melting temperature of NDM-1” value in [11] (in words) is “destabilize the protein in a dose-dependent manner”.
